Source: patent US9775903B2, “1-deoxy analogs of 1,25-dihydroxyvitamin D3 compounds” (JOHNS HOPKINS UNIVERSITY, priority 2010, dated 2017)

Key:
[1] = tested on: CYP24 transcription in HPK1a-ras cells; test: CYP24 transcription in HPK1a-ras cells (real-time PCR); assay type: cell-based, human; settings: for concentration at which significant transcriptional activity (CYP24) is displayed / CYP24 transcription activity (in words): HPK1a-ras cells; for concentration at which significant transcriptional activity (CYP24) is displayed: 6 hr; for CYP24 transcription activity (in words): which express CYP27B1; for induction of CYP24 transcription compared to vehicle: 6 or 7 hours
Method: (§1) HPK1a-ras cells were maintained in Dulbecco's Modified Eagle's medium (DMEM) supplemented with 10% Fetal Bovine Serum and plated at 1×10^5 cells/well in 24-well plates. The media was exchanged after 24 hours for DMEM containing 1% Bovine Serum Albumin. Cells were treated in duplicate with Ibii and control compounds at various concentrations (10^−6 to 10^−9M) for 6 or 7 hours. Extraction of cellular RNA was performed using Trizol® (Invitrogen). Aliquots of RNA were reverse-transcribed to cDNA using random hexamers and Thermoscript reverse transcriptase according to the manufacturer's instructions (Invitrogen). Quantitative real-time PCR was performed using an ABI StepOnePlus system using the Taqman Universal PCR Master Mix. PCR reaction volumes of 20 μL were used with 50 cycles of amplification. Each cDNA sample was tested in duplicate using TaqMan® gene expression assays with the following ID numbers: human GAPDH (Hs99999905_m1), human CYP24 (Hs00167999_m1). The real-time PCR results were analyzed using the StepOne system software V2.1. Gene expression levels were calculated using the comparative CT method, and normalized to the GAPDH expression levels.
(§2) CYP24a1 transcription activity in HPK1a-ras cells was determined for prodrugs Iaii and IIaii. As with the protocol described in Example 7, HPK1a-ras cells were maintained in Dulbecco's Modified Eagle's medium (DMEM) supplemented with 10% Fetal Bovine Serum and plated at 1×10^5 cells/well in 24-well plates. Prior to treatment with compounds, cells were washed with PBS and replaced with DMEM containing 1% Bovine Serum Albumin. Cells were treated in duplicate with vehicle or compounds at various concentrations (10^-6 to 10^-9 M) for 6 hr at 37° C. Media was removed and extraction of cellular RNA was performed using Trizol® (Invitrogen). Aliquots of RNA were reverse-transcribed to cDNA using oligo dT primers and Thermoscript reverse transcriptase according to the manufacturer's instructions (Invitrogen). Quantitative real-time PCR was performed using an ABI StepOnePlus system using the Taqman Universal PCR Master Mix. PCR reaction volumes of 20 μl were used with 50 cycles of amplification. Each cDNA sample was tested in duplicate using TaqMan® gene expression assays with the following ID numbers: human GAPDH (Hs99999905_m1), human CYP24 (Hs00167999_m1). The real-time PCR results were analyzed using the StepOne system software V2.1. Gene expression levels were calculated using the comparative CT method, and normalized to the GAPDH expression levels

[2] = tested on: CYP24 expression in PMA-stimulated U937 cells; test: CYP24 expression in PMA-stimulated U937 cells, which do not substantially express CYP27B1; assay type: cell-based, human; settings: concentrations up to 100 nM, 6 hr
Method: PMA-stimulated U937 cells were maintained in RPMI media supplemented with 10 mM HEPES, 1 mM sodium pyruvate, 0.1 mM non-essential amino acids and 10% Fetal Bovine Serum at optimal cell density (between 1×10^5 cells/mL and 2×10^6 cells/mL). Prior to treatment, cells were pelleted by centrifugation and resuspended to a concentration of 5×10^5 cells/mL. Cells were then treated with phorbol myristate acetate (PMA) at a final concentration of 20 ng/ml. To each well of a 24-well plate, 1 ml of cell suspension was added, which was incubated overnight at 37° C.+5% CO2. The following day, RPMI media was replaced with fresh media and cells were treated in triplicate with vehicle or compounds at various concentrations (10^-7 to 10^-9 M) for 6 hr at 37° C. Media was removed and extraction of cellular RNA was performed using Trizol® (Invitrogen). Aliquots of RNA were reverse-transcribed to cDNA using oligo dT primers and Thermoscript reverse transcriptase according to the manufacturer's instructions (Invitrogen). Quantitative real-time PCR was performed using an ABI StepOnePlus system using the Taqman Universal PCR Master Mix. PCR reaction volumes of 20 μl were used with 50 cycles of amplification. Each cDNA sample was tested in duplicate using TaqMan® gene expression assays with the following ID numbers: human GAPDH (Hs99999905_m1), human CYP24 (Hs00167999_m1). The real-time PCR results were analyzed using the StepOne system software V2.1. Gene expression levels were calculated using the comparative CT method, and normalized to the GAPDH expression levels. The U937 cells have a low level of expression of CYP27B1 mRNA, for example compared to HPK1a-ras cells.

[3] = biological target: T1, VDR (Homo sapiens, UniProt P11473); test: Binding to the Vitamin D Receptor (competition with [26,27-methyl-3H]-1α,25(OH)2D3)
T1 sequence (P11473 1-427): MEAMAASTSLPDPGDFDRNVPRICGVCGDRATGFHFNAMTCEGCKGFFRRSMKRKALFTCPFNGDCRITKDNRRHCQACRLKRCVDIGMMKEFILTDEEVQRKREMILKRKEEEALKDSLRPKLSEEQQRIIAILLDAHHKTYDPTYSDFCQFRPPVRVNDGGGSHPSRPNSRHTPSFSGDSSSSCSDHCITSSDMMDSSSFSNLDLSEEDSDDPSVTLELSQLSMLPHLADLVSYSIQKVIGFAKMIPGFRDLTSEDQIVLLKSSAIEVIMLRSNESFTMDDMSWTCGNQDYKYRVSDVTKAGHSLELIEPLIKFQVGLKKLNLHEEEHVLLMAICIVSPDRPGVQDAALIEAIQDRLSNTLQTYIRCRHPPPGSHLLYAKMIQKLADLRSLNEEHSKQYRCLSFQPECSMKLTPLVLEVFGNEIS
Method: Unbound radioactive ligand was removed by incubation with dextran-charcoal for 30 min on ice and pelleted by centrifugation at 2000 rpm for 10 min at 4° C. The radioactivity in 100 mL of the supernatant was measured using a scintillation counter. The control reactions contained either no VDR protein (background) or no competing ligand (maximum binding). The mean background binding was subtracted and the data divided by the mean maximum binding to yield B/Bmax values. The concentration necessary to displace 50% of [26,27-methyl-^3H]-1α,25(OH)2D3 from VDR was calculated as the B50.

[4] = biological target: T2, CYP24 (Homo sapiens, UniProt Q07973); test: CYP24 inhibitory activity: CYP24a1 transcription in HPK1a-ras cells treated with calcitriol plus test compound; assay type: cell-based; settings: 1 μM analog with 0.1 nM or 1 nM calcitriol, 6 hours
T2 construct: CYP24a1 relative transcription in HPK1a-ras cells treated for 6 hours with calcitriol; endogenous in cells; host or cells: HPK1a-ras cells
T2 sequence (Q07973 36-514): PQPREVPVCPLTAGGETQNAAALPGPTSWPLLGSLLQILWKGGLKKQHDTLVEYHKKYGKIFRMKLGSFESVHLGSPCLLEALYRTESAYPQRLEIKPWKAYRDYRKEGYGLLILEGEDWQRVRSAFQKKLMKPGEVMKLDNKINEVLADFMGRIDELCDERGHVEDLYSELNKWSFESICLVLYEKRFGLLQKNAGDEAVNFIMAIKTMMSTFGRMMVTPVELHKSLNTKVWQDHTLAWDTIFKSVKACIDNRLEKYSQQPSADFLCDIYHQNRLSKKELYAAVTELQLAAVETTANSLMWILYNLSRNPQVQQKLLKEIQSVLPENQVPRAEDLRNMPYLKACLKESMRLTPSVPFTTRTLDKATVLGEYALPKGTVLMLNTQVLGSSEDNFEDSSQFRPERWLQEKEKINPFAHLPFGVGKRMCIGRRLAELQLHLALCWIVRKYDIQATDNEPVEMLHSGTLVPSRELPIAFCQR
Method: as §2, with “Aliquots of RNA were reverse-transcribed to cDNA using oligo dT primers and Thermoscript reverse transcriptase according to the manufacturer's instructions (Invitrogen).” left out, “PCR reaction volumes of 20 μl were used with 50 cycles of amplification. Each cDNA sample was tested in duplicate using TaqMan® gene expression assays with the following ID numbers: human GAPDH (Hs99999905_m1), human CYP24 (Hs00167999_m1).” left out
Transcriptional activity of calcitriol and Prodrugs was determined by CYP24a1 relative transcription in HPK1a-ras cells treated for 6 hours with calcitriol, combinations of calcitriol with Prodrugs Icii, Idii, and Ieii, and combinations of calcitriol with 1-hydroxylated active forms of Prodrugs Icii, Idii, and Ieii which are known CYP24 inhibitors.

[5] = biological target: T1, VDR; settings: relative to active Vitamin D hormones / 1,25-hydroxyvitamin D3; cited from earlier work
[6] = tested on: CYP27b1 transcription in HPK1a-ras cells; test: CYP27b1 transcription in HPK1a-ras cells (real-time PCR); assay type: cell-based, human
Method: as §1, with “duplicate.” for “duplicate using TaqMan® gene expression assays with the following ID numbers: human GAPDH (Hs99999905_m1), human CYP24 (Hs00167999_m1).”

[7] = tested on: PTH; test: Serum PTH in adenine-induced uremic rats; assay type: in vivo, male Sprague-Dawley rats; settings: adenine treated rats
Description: (§3) Day 0 is the first day of dosing.

[8] = tested on: FGF23; test: Serum FGF23 in adenine-induced uremic rats; assay type: in vivo, male Sprague-Dawley rats; settings: adenine treated rats, i.v. 0.2-10 mcg/kg, three times per week for two weeks
Description: as §3

[9] = tested on: PTH; test: PTH in vitamin D deficient rats, IV and oral dosing; assay type: in vivo, Sprague Dawley rats; settings: 160 μg/kg, 3×/week for five days
Method: (§4) Vitamin D deficient Sprague Dawley rats were treated with Ibii 3×/week for five days by IV and oral routes, according to the Table below: […]

[10] = Body weight in vitamin D deficient rats; assay type: in vivo, Sprague Dawley rats; settings: IV and oral, 160 μg/kg
Method: as §4

Structure (SMILES) | concentration at which significant transcriptional activity (CYP24) is displayed [1] | CYP24 transcription activity (in words) [1] | relative CYP24 expression (compared to calcitriol) [2] | binding to the VDR (in words) [3] | CYP24 inhibitory effect (increased CYP24a1 transcription with calcitriol) [4] | further results
C=CCO/N=C(\CCC[C@@H](C)C1=CC[C@H]2/C(=C/C=C3/C[C@@H](O)CCC3=C)CCC[C@]12C)C(C)(C)C [Prodrug IIaii, 7-{4-[2-(5-Hydroxy-2-methylene-cyclohexylidene)-ethylidene]-7α-methyl-3α,4,5,6,7,7a-hexahydro-3H-inden-1-yl}-2,2-dimethyl-octan-3-one 0-allyl-oxime] | 1000 nM | active | inactive | do not bind to the VDR |  | 
C=C1CCC(O)CC1=CC=C1CCCC2(C)C1CCC2C(C)CCCS(=N)(=O)c1ccccc1 (stereo not drawn) [Prodrug Icii, 3-{2-[1-(4-Benzenesulfoximine-1-methyl-butyl)-7α-methyl-octahydro-inden-4-ylidene]-ethylidene}-4-methylene-cyclohexanol] |  |  | inactive |  | CYP24 inhibitory effect | 
C=C1CC[C@H](O)C/C1=C/C=C1\CCC[C@]2(C)C([C@H](C)CCCC(C)(C)O)CC[C@@H]12 (stereo partly drawn) [25-hydroxyvitamin D3] |  |  |  |  |  | affinity for the VDR, fold lower than the active Vitamin D hormone [5]: 100 fold
C=C1CCC(O)CC1=CC=C1CCCC2(C)C1CCC2C(C)CCC(F)(F)S(=O)(=O)C(C)(C)C (stereo not drawn) [Prodrug Iaii, 3-(2-{1-[4,4-Difluoro-1-methyl-4-(2-methyl-propane-2-sulfonyl)-butyl]-7α-methyl-3,3α,5,6,7,7a-hexahydro-inden-4-ylidene}-ethylidene)-4-methylene-cyclohexanol] | 1000 nM | active | inactive | do not bind to the VDR |  | 
C=C1CCC(O)CC1=CC=C1CCCC2(C)C1CCC2C(C)CCS(=O)(=O)c1ccccc1 (stereo not drawn) [Prodrug Idii, 3-{2-[1-(3-Benzenesulfonyl-1-methyl-propyl)-7α-methyl-octahydro-inden-4-ylidene]-ethylidene}-4-methylene-cyclohexanol] |  |  | inactive |  | CYP24 inhibitory effect | 
C=C1CCC(O)CC1=CC=C1CCCC2(C)C(C(C)CC=CS(=O)(=O)C(C)(C)C)=CCC12 (stereo not drawn) [Prodrug Ibii, 4-Methylene-3-(2-{7α-methyl-1-[1-methyl-4-(2-methyl-propane-2-sulfonyl)-but-3-enyl]-3,3α,5,6,7,7a-hexahydro-inden-4-ylidene}-ethylidene)-cyclohexanol] | 100 nM |  | inactive |  |  | induction of CYP24 transcription compared to vehicle ([1]; 100 nM, HPK1aRas cells): about 100 fold; induction of CYP24 transcription compared to vehicle ([1]; 1 μM, HPK1aRas cells): about 500 fold; potency in CYP24 transcription relative to its 1-hydroxylated analog ([1]; HPK1aRas cells): about 1/100; induction of CYP24A1 transcription at lower concentrations ([1]; concentrations below 100 nM, HPK1aRas cells): did not significantly induce; transcription of CYP27b1 compared to vehicle [6]: not significantly affected; potency in decreasing circulating iPTH levels versus the 1-hydroxy active form ([7]; i.v.): comparable to but lower than the 1-hydroxy active form; circulating iPTH levels in serum ([7]; i.v. 0.2-10 mcg/kg, three times per week for two weeks): can lower circulating iPTH levels; effect on serum FGF23 levels [8]: does not increase serum FGF23 levels; effect on PTH ([9]; intravenous): can effectively lower PTH; effect on PTH ([9]; oral): can effectively lower PTH; effects on body weight (overt toxicity) [10]: does not exhibit overt toxicity; IC50 ([3]; read-out: B50 (concentration necessary to displace 50% of [26,27-methyl-3H]-1α,25(OH)2D3 from VDR), in vitro, human recombinant VDR): > 1000 nM
